Measurements: patent US20100056508A1, “AMINE DERIVATIVES AND THEIR USE IN BETA-2-ADRENORECEPTOR MEDIATED DISEASES” (ASTRAZENECA AB, priority 2006, published 2010)
Structures can show the parent of a compound that is named as a salt.

Experiments:
[1] = target: T1, Adrenergic β2 (Homo sapiens, UniProt P07550); assay: Adrenergic β2 mediated cAMP production in H292 cells (AlphaScreen cAMP detection); type: cell-based; set-up: key to β2 Int Act: fraction of formoterol maximum activity (formoterol = 1); details: for β2 Int Act: Intrinsic Activity as a fraction relative to the maximum activity determined for formoterol; for EC50: cAMP production, 60 minutes at room temperature, 300 μM rolipram, read-out: β2 pEC50 (converted)
T1 construct: Adherent H292 cells were removed from tissue culture flasks; endogenous in cells; host or cells: H292 cells
Procedure, shortened: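 H292 cells pre-treated 10 min with rolipram (300 μM final), then given agonist for 60 min at room temperature in HBSS/10 mM HEPES pH 7.4, 1.6% DMSO final. Lysate cAMP measured by AlphaScreen against a cAMP standard curve. Four-parameter fit gives pEC50; intrinsic activity relative to formoterol maximum.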

[2] = target: T2, recombinant human α1D receptor (Homo sapiens, UniProt P25100); assay: Adrenergic α1D selectivity assay, [3H]-prazosin binding to membranes; details: inhibition of [3H]-prazosin binding, HEK cell membranes, read-out: α1 bind pIC50 (converted)
T2 construct: expressed in transfected cells; host or cells: human embryonic kidney 293 cells (HEK93 [sic]), membranes
T2 sequence (P25100 1-572): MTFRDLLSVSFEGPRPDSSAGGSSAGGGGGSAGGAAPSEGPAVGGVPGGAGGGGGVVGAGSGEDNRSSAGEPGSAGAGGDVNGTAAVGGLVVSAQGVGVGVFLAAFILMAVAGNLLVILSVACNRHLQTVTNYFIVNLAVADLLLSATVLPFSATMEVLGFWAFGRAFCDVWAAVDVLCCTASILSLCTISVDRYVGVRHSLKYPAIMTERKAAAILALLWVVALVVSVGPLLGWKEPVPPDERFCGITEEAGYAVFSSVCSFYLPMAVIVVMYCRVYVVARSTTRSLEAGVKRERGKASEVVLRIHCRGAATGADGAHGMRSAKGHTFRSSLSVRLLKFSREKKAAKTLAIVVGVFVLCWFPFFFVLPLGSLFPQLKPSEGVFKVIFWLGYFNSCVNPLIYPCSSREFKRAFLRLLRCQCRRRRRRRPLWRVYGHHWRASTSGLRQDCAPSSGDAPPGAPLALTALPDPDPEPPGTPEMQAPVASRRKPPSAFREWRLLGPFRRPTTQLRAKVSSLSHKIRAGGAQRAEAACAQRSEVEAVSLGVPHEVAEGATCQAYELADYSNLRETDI
Procedure, shortened: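 Competition binding on HEK293 membranes with recombinant human α1D receptor, 0.3 nM [3H]-prazosin, 50 mM HEPES/1 mM EDTA pH 7.4, 2 h at room temperature; filtration and scintillation counting. Non-specific binding defined with 10 μM BMY7378. pIC50 from four-parameter logistic fit of specific-binding inhibition.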

T1 sequence (P07550 whole entry): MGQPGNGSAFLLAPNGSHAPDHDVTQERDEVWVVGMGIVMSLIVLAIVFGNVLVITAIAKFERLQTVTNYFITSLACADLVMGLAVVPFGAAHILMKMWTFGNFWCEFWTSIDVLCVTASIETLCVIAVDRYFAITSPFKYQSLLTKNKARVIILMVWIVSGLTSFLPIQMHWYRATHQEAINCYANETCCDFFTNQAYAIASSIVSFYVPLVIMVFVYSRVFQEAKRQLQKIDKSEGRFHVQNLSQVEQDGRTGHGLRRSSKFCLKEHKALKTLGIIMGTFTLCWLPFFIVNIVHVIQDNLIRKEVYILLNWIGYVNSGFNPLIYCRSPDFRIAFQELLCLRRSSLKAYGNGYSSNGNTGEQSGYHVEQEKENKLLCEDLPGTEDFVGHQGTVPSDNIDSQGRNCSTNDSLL

β2 Int Act [1]	EC50 [1] [nM]	IC50 [2] [nM]	Structure (SMILES)
0.88	1.58	200	O=C1COc2c(CCNCCN(C(=O)CCNCCc3cccc(F)c3)C3CCCCCC3)ccc(O)c2N1 [Example 69, N-Cycloheptyl-3-(3-fluorophenethylamino)-N-(2-(2-(5-hydroxy-3-oxo-3,4-dihydro-2H-benzo[b][1,4]oxazin-8-yl)ethylamino)ethyl)propanamide bis(trifluoroacetate)]
0.97	3.98	1580	O=C1COc2c(CCNCCN(C(=O)CCOCCc3ccccc3)C3CCCCC3)ccc(O)c2N1 [Example 70, N-Cyclohexyl-N-(2-(2-(5-hydroxy-3-oxo-3,4-dihydro-2H-benzo[b][1,4]oxazin-8-yl)ethylamino)ethyl)-3-phenethoxypropanamide trifluoroacetate]
0.97	2	794	O=C1COc2c(CCNCCN(C(=O)CCOCCc3cccc(F)c3)C3CCCCC3)ccc(O)c2N1 [Example 74, N-Cyclohexyl-3-(3-fluorophenethoxy)-N-(2-(2-(5-hydroxy-3-oxo-3,4-dihydro-2H-benzo[b][1,4]oxazin-8-yl)ethylamino)ethyl)propanamide trifluoroacetate]
0.96	2.51	631	O=C1COc2c(CCNCCN(C(=O)CCOCCc3ccc(F)cc3)C3CCCCC3)ccc(O)c2N1 [Example 75, N-Cyclohexyl-3-(4-fluorophenethoxy)-N-(2-(2-(5-hydroxy-3-oxo-3,4-dihydro-2H-benzo[b][1,4]oxazin-8-yl)ethylamino)ethyl)propanamide trifluoroacetate]
1.1	1.58	1000	O=C1COc2c(CCNCCN(C(=O)CCOCCc3ccccc3F)C3CCCCC3)ccc(O)c2N1 [Example 76, N-Cyclohexyl-3-(2-fluorophenethoxy)-N-(2-(2-(5-hydroxy-3-oxo-3,4-dihydro-2H-benzo[b][1,4]oxazin-8-yl)ethylamino)ethyl)propanamide trifluoroacetate]
0.97	2	794	O=C1COc2c(CCNCCN(C(=O)CCOCCc3cccc(Cl)c3)C3CCCCC3)ccc(O)c2N1 [Example 77, 3-(3-Chlorophenethoxy)-N-cyclohexyl-N-(2-(2-(5-hydroxy-3-oxo-3,4-dihydro-2H-benzo[b][1,4]oxazin-8-yl)ethylamino)ethyl)propanamide trifluoroacetate]
0.92	50.1	631	CC[C@@H](C)N(CCNCCc1ccc(O)c2[nH]c(=O)ccc12)C(=O)CCOCCc1ccccc1.Cl [Example 79, (R)—N-sec-Butyl-N-(2-(2-(8-hydroxy-2-oxo-1,2-dihydroquinolin-5-yl)ethylamino)ethyl)-3-phenethoxypropanamide hydrochloride]
1.04	25.1	501	CC(C)[C@@H](C)N(CCNCCc1ccc(O)c2[nH]c(=O)ccc12)C(=O)CCOCCc1ccccc1.Cl [Example 80, (R)—N-(2-(2-(8-Hydroxy-2-oxo-1,2-dihydroquinolin-5-yl)ethylamino)ethyl)-N-(3-methylbutan-2-yl)-3-phenethoxypropanamide hydrochloride]
